Source: patent US6858739B2, “Indole and benzimidazole 15-lipoxygenase inhibitors” (Warner-Lambert Company, priority 2000, dated 2005)
Where a name gives a salt, the structure may show the parent alone.

Key:
human 15-LO = biological target: T1, human 15-LO (Homo sapiens, UniProt P16050); assay: 15-LO inhibition, human enzyme; type: biochemical; conditions: linoleic acid as substrate; for inhibition at 10 µM: at 10 micromolar
T1 sequence (P16050 1-662): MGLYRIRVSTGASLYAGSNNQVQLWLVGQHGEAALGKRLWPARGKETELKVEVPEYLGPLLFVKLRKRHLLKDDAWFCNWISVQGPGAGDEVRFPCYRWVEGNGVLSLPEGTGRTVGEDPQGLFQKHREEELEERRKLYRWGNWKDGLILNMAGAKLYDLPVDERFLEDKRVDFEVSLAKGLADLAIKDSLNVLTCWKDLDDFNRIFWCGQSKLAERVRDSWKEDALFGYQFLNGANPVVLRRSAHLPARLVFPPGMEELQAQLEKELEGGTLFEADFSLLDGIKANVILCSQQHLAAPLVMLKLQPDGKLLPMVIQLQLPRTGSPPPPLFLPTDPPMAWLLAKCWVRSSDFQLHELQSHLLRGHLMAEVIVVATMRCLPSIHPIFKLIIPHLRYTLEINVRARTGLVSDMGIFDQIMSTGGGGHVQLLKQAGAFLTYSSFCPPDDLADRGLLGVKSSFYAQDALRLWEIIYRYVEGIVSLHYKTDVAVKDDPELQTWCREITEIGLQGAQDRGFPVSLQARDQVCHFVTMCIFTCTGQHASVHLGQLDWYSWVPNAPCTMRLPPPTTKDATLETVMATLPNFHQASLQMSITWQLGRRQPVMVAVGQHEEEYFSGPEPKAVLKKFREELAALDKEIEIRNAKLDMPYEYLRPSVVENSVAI
Protocol: The compounds described above are effective inhibitors of 15-LO when evaluated in standard assays routinely utilized to measure 15-LO activity. Specifically, representative compounds were evaluated by the methods described by Auerbach et al., Analytical Biochemistry, 1992;201:375-380. Two in vitro assays were utilized, one utilizing rabbit reticulocyte 15-LO, the other using human 15-LO. Both used linoleic acid as substrate, to enzymatically produce a peroxide oxidation product known as 13(S)-HPODE. N-Benzoyl leucomethylene blue was utilized as a colorimetric reagent for detection and quantification of the peroxide formation. Also, HPLC was utilized to quantify the oxidation following incubation at 4° C. for 10 minutes.
Data Column 1 gives the concentration of compound required to inhibit 50% of the activity of 15-LO (IC50) when measured by the HPLC method of Auerbach et al. using rabbit enzymes, and data Column 2 gives data from human 15-LO enzyme.

| melting point | IC50 (human 15-LO) [nM] | inhibition at 10 µM (human 15-LO) [%] | SMILES |
| --- | --- | --- | --- |
| 134 to 135 °C | 236 | – | COc1ccc(-c2cc3ccccc3[nH]2)cc1NCc1ccc([N+](=O)[O-])c(O)c1 [Example 44, [5-(1H-Indol-2-yl)-2-methoxy-phenyl]-(3-hydroxy-4-nitro-benzyl)-amine] |
| 170 to 171 °C | – | 98 | COc1ccc(-c2cc3cc(F)c(F)cc3[nH]2)cc1NCc1ccc([N+](=O)[O-])c(O)c1 [Example 48, [5-(5,6-Difluoro-1H-indol-2-yl)-2-methoxy-phenyl]-(3-hydroxy-4-nitro-benzyl)-amine] |
| 165 to 166 °C | 420 | – | COc1ccc(-c2cc3ccccc3[nH]2)cc1NCc1ccc(O)c([N+](=O)[O-])c1 [Example 45, [5-(1H-Indol-2-yl)-2-methoxy-phenyl]-(4-hydroxy-3-nitro-benzyl)-amine] |
| 154 to 155 °C | 432 | – | COc1ccc(-c2cc3cc(F)c(F)cc3[nH]2)cc1NCc1cccc(C#N)c1 [Example 51, [5-(5,6-Difluoro-1H-indol-2yl)-2-methoxy-phenyl]-(3-cyano-benzyl)-amine] |
| 212 to 214 °C | 3030 | – | COc1ccc(-c2cc3cc(F)c(F)cc3[nH]2)cc1NCc1cccc([N+](=O)[O-])c1 [Example 46, [5-(5,6-Difluoro-1H-indol-2-yl)-2-methoxy-phenyl]-(3-nitro-benzyl)-amine] |
| 160 to 162 °C | 870 | – | COc1ccc(-c2cc3ccccc3[nH]2)cc1NCc1cccc([N+](=O)[O-])c1 [Example 42, [5-(1H-indol-2-yl)-2-methoxy-phenyl]-(3-nitro-benzyl)-amine] |
| 193 to 194 °C | 127 | – | COc1ccc(-c2cc3cc(Cl)c(Cl)cc3[nH]2)cc1Nc1cccc(C(F)(F)F)c1 [Example 54, [5-(5,6-Dichloro-1H-indol-2-yl)-2-methoxy-phenyl]-(3-trifluoro-methylphenyl)-amine] |
| 195 to 196 °C | – | 99 | COc1ccc(-c2cc3cc(F)c(F)cc3[nH]2)cc1NCc1ccc(O)c([N+](=O)[O-])c1 [Example 49, [5-(5,6-Difluoro-1H-indol-2-yl)-2-methoxy-phenyl](4-hydroxy-3-nitro-benzyl)-amine] |
| 200 to 201 °C (dec.) | – | – | COc1ccc(-c2cc3cc(F)c(F)cc3[nH]2)cc1Nc1cccc(OCc2ccccc2)c1 (as salt: HCl) [Example 53, [5-(5,6-Difluoro-1H-indol-2-yl)-2-methoxy-phenyl]-(3-benzyloxy-phenyl)-amine] |
| 198 to 199 °C | 920 | – | COc1ccc(-c2cc3ccccc3[nH]2)cc1NCc1ccc([N+](=O)[O-])cc1 [Example 43, [5-(1H-Indol-2-yl)-2-methoxy-phenyl]-(4-nitro-benzyl)-amine] |
| 181 to 182 °C | 534 | – | COc1ccc(-c2cc3cc(F)c(F)cc3[nH]2)cc1NCc1ccc([N+](=O)[O-])cc1 [Example 47, [5-(5,6-Difluoro-1H-indol-2-yl)-2-methoxy-phenyl]-(4nitro-benzyl)-amine] |

Second part, the molecule before the results:

| SMILES | melting point | IC50 (human 15-LO) [nM] | inhibition at 10 µM (human 15-LO) [%] |
| --- | --- | --- | --- |
| COc1ccc(-c2cc3ccccc3[nH]2)cc1NC(=S)N[C@H](C)c1ccccc1 [Example 27, (R)-1-[5-(1H-Indol-2-yl)-2-methoxy-phenyl]-3(1-phenyl-ethyl)-thiourea] | 179 to 181 °C | 1770 | – |
| COc1ccc(-c2cc3cc(F)c(F)cc3[nH]2)cc1Nc1cccc(C(F)(F)F)c1 [Example 22, [5-(5,6-Difluoro-1H-indol-2-yl)-2-methoxy-phenyl]-(3-trifluoro-methylphenyl)-amine] | 144 to 146 °C | 48 | – |
| COc1ccc(-c2cc3cc(F)c(F)cc3[nH]2)cc1NC(=S)N[C@@H](COC(C)(C)C)C(=O)OC(C)(C)C [Example 36, (S)-3-tert-Butoxy-2-{3-[5-(5,6-Difluoro-1H-indol-2-yl)-2-methoxy-phenyl]-thioureido}-propionic acid tert-butyl ester] | 111 to 114 °C | – | 51 |
| COc1ccc(-c2cc3cc(F)c(F)cc3[nH]2)cc1NS(=O)(=O)c1cccc(N)c1 [Example 16, 3-Amino-N-[5-(5,6-difluoro-1H-indol-2-yl)-2-methoxy-phenyl]-benzenesulfonamide] | 235 to 238 °C | 20 | – |
| CCCCCCCCCCCCS(=O)(=O)Nc1cc(-c2nc3cc(Cl)c(Cl)cc3[nH]2)ccc1OC [Example 21, Dodecane-1-sulfonic acid [5-(5,6-dichloro-1H-benzoimidazol-2-yl)-2-methoxy-phenyl]-amide] | 203 to 204 °C | – | 65 |
| COc1ccc(-c2cc3ccccc3[nH]2)cc1NC(=S)Nc1ccc(C(=O)O)cc1 [Example 32, 4-{3-[5-(1H-Indol-2-yl)-2-methoxy-phenyl]-thioureido}-benzoic acid] | 201 to 203 °C | 304 | – |
| CNc1cc(-c2cc3ccccc3[nH]2)ccc1OC [Example 29, [5-(1H-Indol-2-yl)-2-methoxy-phenyl]-methyl-amine] | – | 470 | – |
| COc1ccc(-c2cc3cc(F)c(F)cc3[nH]2)cc1NS(=O)(=O)c1cccc(C#N)c1 [Example 28, 3Cyano-N-[5-(5,6-difluoro-1H-indol-2-yl)-2-methoxy-phenyl]-benzenesulfonamide] | 239 to 242 °C | 802 | – |
| CCCCCCCCCCCCS(=O)(=O)Nc1cc(-c2cc3cc(F)c(F)cc3[nH]2)ccc1OC [Example 20, Dodecane-1-sulfonic acid [5-(5,6-difluoro-1H-indol-2-yl)-methoxy-phenyl]-amide] | 148 to 149 °C | 13 | – |
| COc1ccc(-c2cc3cc(F)c(F)cc3[nH]2)cc1NC(=S)N[C@@H](C)c1ccccc1 [Example 35, 1-[5-(5,6-Difluoro-1H-indol-2-yl)-2-methoxy-phenyl]-3-((S)-1-phenyl-ethyl)-thiourea] | 102 to 106 °C | 538 | – |
| COc1ccc(-c2cc3cc(F)c(F)cc3[nH]2)cc1NC(=O)Nc1cc(Cl)cc(Cl)c1 [Example 25, 1-(3,5-Dichloro-phenyl)-3-[5-(5,6-difluoro-1H-indol-2-yl)-2-methoxy-phenyl]-urea] | 240 to 243 °C | 2080 | – |
| COc1ccc(-c2cc3ccccc3[nH]2)cc1NC(=S)Nc1ccc(CC(=O)O)cc1 [Example 34, (4-{3-[5-(1H-Indol-2-yl)-2-methoxy-phenyl]-thioureido}-phenyl)-acetic acid] | 190 to 192 °C | 1440 | – |
| COc1ccc(-c2cc3cc(F)c(F)cc3[nH]2)cc1NC(=S)N[C@@H](CO)[C@@H](O)c1ccccc1 [Example 40, 1-[5-(5,6-Difluoro-1H-indol-2-yl)-2-methoxy-phenyl]-3-((1S,2S)-2-hydroxy-1-hydroxymethyl-2-phenyl-ethyl)-thiourea] | – | 620 | – |
| COc1ccc(-c2cc3cc(F)c(F)cc3[nH]2)cc1NC(=S)Nc1cc(C(=O)O)cc(C(=O)O)c1 [Example 30, 5-{3-[5-(5,6-Difluoro-1H-indol-2-yl)-2-methoxy-phenyl]-thioureido}-isophthalic acid] | – | 1820 | – |
| COc1ccc(-c2cc3ccccc3[nH]2)cc1NC(=S)NCCNC(=O)OC(C)(C)C [Example 31, (2-{3-[5-(1H-Indol-2-yl)-2-methoxy-phenyl]-thioureido}-ethyl)-carbamic acid tert-butyl ester] | 159 to 160 °C | 141 | – |
| COc1ccc(-c2cc3ccccc3[nH]2)cc1NC(N)=S [Example 26, [5-(1H-Indol-2-yl)-2-methoxy-phenyl]-thiourea] | 188 to 191 °C | 258 | – |
| COc1ccc(-c2cc3ccccc3[nH]2)cc1NC(=S)Nc1cccc(CC(=O)O)c1 [Example 33, (3-{3-[5-(1H-Indol-2-yl)-2-methoxy-phenyl]-thioureido}-phenyl)-acetic acid] | 174 to 175 °C | 740 | – |
| CCOP(=O)(Cc1ccc(NC(=S)Nc2cc(-c3cc4ccccc4[nH]3)ccc2OC)cc1)OCC [Example 23, (4-{3-[5-(1H-Indol-2-yl)-2-methoxy-phenyl]-thioureido}-benzyl)-phosphonic acid diethyl ester] | – | 331 | – |
| COc1ccc(-c2cc3ccccc3[nH]2)cc1NC(=S)Nc1ccc(S(N)(=O)=O)cc1 [Example 17, 4-{3-[5-(1H-Indol-2-yl)-2-methoxy-phenyl]-thioureido}-benzenesulfonamide] | – | 187 | – |
